From patent US8906928B2, “Substituted pyrazolo-pyrrolo-pyridine-dione compounds” (ArQule, Inc., priority 2009, dated 2014)

Key:
Type in all cases: cell-based
DLD-1 = assay: MTS assay (cell growth inhibition), DLD-1; conditions: DLD-1 cells, 72 hours incubation with test compound; concentration not given
Protocol: (§1) Cells were maintained at 37° C., 5% CO2 in DMEM media supplemented with 1% fetal bovine serum, penicillin/streptomycin and fungizone (Invitrogen). Cells were seeded into 96-well tissue culture plates at 3000 per well and cultured at 37° C. for 18 hours. Test compounds were dissolved and diluted to 300× in DMSO then diluted 1:40 in DMEM. Cells were incubated with test compounds for 72 hours followed by incubation with tetrazolium compound (3-(4,5-dimethylthiazol-2-yl)-5-(3-carboxymethoxyphenyl)-2-(4-sulfophenyl)-2H-tetrazolium, inner salt; MTS) and the electron coupling reagent, phenazine methosulfate (PMS) for 4 hours. […] The ability of compounds to inhibit cell growth in this assay is correlated with the reduction of dehydrogenase enzyme activity found in metabolically active cells. The measurement of the absorbance of the formazan was assessed using an ENVISION™ (Perkin Elmer) microplate reader at 492 nm. The calculated IC50 value is the concentration of the test compound that causes a 50% decrease in the absorbance.

Kato III = assay: MTS assay (cell growth inhibition), Kato III; conditions: Kato III cells, 72 hours incubation with test compound; concentration not given
Protocol: as §1

PACA-2 = assay: MTS assay (cell growth inhibition), PACA-2; conditions: PACA-2 cells, 72 hours incubation with test compound; concentration not given
Protocol: as §1

MDA-MB = assay: MTS assay (cell growth inhibition), MDA-MB; conditions: MDA-MB cells, 72 hours incubation with test compound; concentration not given
Protocol: as §1

PC-3 = assay: MTS assay (cell growth inhibition), PC-3; conditions: PC-3 cells, 72 hours incubation with test compound; concentration not given
Protocol: as §1

NCI-H1299 = assay: MTS assay (cell growth inhibition), NCI-H1299; conditions: NCI-H1299 cells, 72 hours incubation with test compound; concentration not given
Protocol: as §1

SMILES	MTS CELL KILL DATA (% INHIBITION) DLD-1 (DLD-1)	MTS CELL KILL DATA (% INHIBITION) Kato III (Kato III)	MTS CELL KILL DATA (% INHIBITION) PACA-2 (PACA-2)	MTS CELL KILL DATA (% INHIBITION) MDA-MB (MDA-MB)	MTS CELL KILL DATA (% INHIBITION) PC-3 (PC-3)	MTS CELL KILL DATA (% INHIBITION) NCI-H1299 (NCI-H1299)
O=C1c2cnc3[nH]ncc3c2C(=O)N1CC1CCOC1 (stereo not drawn) [Example 85, 7-(tetrahydrofuran-3-ylmethyl)pyrazolo[3,4-b]pyrrolo[3,4-d]pyridine-6,8(3H,7H)-dione]	C (C = <50% INHIBITION)	C (C = <50% INHIBITION)	C (C = <50% INHIBITION)	C (C = <50% INHIBITION)	C (C = <50% INHIBITION)	C (C = <50% INHIBITION)
COc1ccc(CN2C(=O)c3cnc4[nH]ncc4c3C2=O)c(Cl)c1 [Example 109, 7-(2-chloro-4-methoxybenzyl)pyrazolo[3,4-b]pyrrolo[3,4-d]pyridine-6,8(3H,7H)-dione]	A (A = 80-100% INHIBITION)	A (A = 80-100% INHIBITION)	A (A = 80-100% INHIBITION)	A (A = 80-100% INHIBITION)	A (A = 80-100% INHIBITION)	A (A = 80-100% INHIBITION)
O=C1c2cnc3[nH]ncc3c2C(=O)N1Cc1c(F)ccc(Cl)c1Cl [Example 97, 7-(2,3-dichloro-6-fluorobenzyl)pyrazolo[3,4-b]pyrrolo[3,4-d]pyridine-6,8(3H,7H)-dione]	C (C = <50% INHIBITION)	C (C = <50% INHIBITION)	C (C = <50% INHIBITION)	C (C = <50% INHIBITION)	C (C = <50% INHIBITION)	C (C = <50% INHIBITION)
O=C1c2cnc3[nH]nc(-c4cc5ccccc5o4)c3c2C(=O)N1CCc1ccccc1 [Example 158, 1-(1-benzofuran-2-yl)-7-(2-phenylethyl)pyrazolo[3,4-b]pyrrolo[3,4-d]pyridine-6,8(3H,7H)-dione]	B (B = 50-79% INHIBITION)	A (A = 80-100% INHIBITION)	C (C = <50% INHIBITION)	B (B = 50-79% INHIBITION)	B (B = 50-79% INHIBITION)	A (A = 80-100% INHIBITION)
O=C1c2ccccc2C(=O)N1CCN1C(=O)c2cnc3[nH]ncc3c2C1=O [Example 131, 7-[2-(1,3-dioxo-1,3-dihydro-2H-isoindol-2-yl)ethyl]pyrazolo[3,4-b]pyrrolo[3,4-d]pyridine-6,8(3H,7H)-dione]	A (A = 80-100% INHIBITION)	A (A = 80-100% INHIBITION)	A (A = 80-100% INHIBITION)	A (A = 80-100% INHIBITION)	A (A = 80-100% INHIBITION)	A (A = 80-100% INHIBITION)
COc1cc(Cl)ccc1CN1C(=O)c2cnc3[nH]ncc3c2C1=O [Example 33, 7-(4-chloro-2-methoxybenzyl)pyrazolo[3,4-b]pyrrolo[3,4-d]pyridine-6,8(3H,7H)-dione]	C (C = <50% INHIBITION)	C (C = <50% INHIBITION)	C (C = <50% INHIBITION)	A (A = 80-100% INHIBITION)	C (C = <50% INHIBITION)	C (C = <50% INHIBITION)
O=C1c2cnc3[nH]ncc3c2C(=O)N1Cc1ccc(F)c(F)c1F [Example 20, 7-(2,3,4-trifluorobenzyl)pyrazolo[3,4-b]pyrrolo[3,4-d]pyrindine-6,8(3H,7H)-dione]	C (C = <50% INHIBITION)	C (C = <50% INHIBITION)	C (C = <50% INHIBITION)	A (A = 80-100% INHIBITION)	A (A = 80-100% INHIBITION)	C (C = <50% INHIBITION)
